Measured values from article PMC12236194, “Precision dendritic-supramolecular glycan assemblies for probing multivalent lectin interactions” (Chemical Science, 2025).

Legend:
[1] = Dynamic light scattering (DLS) hydrodynamic diameter in solution; assay type: physicochemical; conditions: H2O, 1 mM, 25 °C
Experimental: S3. Dynamic Light Scattering (DLS)
All measurements were conducted using a 384-well plate with individual sample volumes of 30
µL. Solutions of man-2, man-3, and man-6 were freshly prepared in H2O (1 mM). For the glycoassembly analyses, two solution conditions were used: samples prepared in H2O (5 μM), and samples prepared in mixed DMSO/H2O solutions (85% v/v, 50 μM). The concentration of each glycoassembly solution was determined by absorption spectroscopy according to ε values (M-1cm-1) reported in Section S2.2. All sample solutions were filtered through a 0.22 μm PTFE syringe filter before being added to a well. The sample plate was then centrifuged using a Fisherbrand Mini Plate Spinner Centrifuge at 2500 rpm for 20 sec, and measurements were immediately collected at 25 °C. Before data collection, images were taken of each well to confirm the absence of bubbles or visible dust particles that affect the DLS measurements. The hydrodynamic diameter (Dh) values represent the mean ± standard deviation (σ) of the hydrodynamic size averaged for three (1 sec) scans and all data were analyzed using DYNAMICS […]
S3.1.1. Measurement in H2O (1 mM)
Figure S53. DLS measurements of man -2 (H O, 1 mM).
S3.2.1. Measurement in H2O (1 mM)
Figure S54. DLS measurements of man-3 (H2O, 1 mM). […]

[2] = molecular target: monomeric Griffithsin (GRFT); parameters: method as in PMID 17340634; conditions: monovalent sugar; cited from earlier work

| Hydrodynamic diameter (Dh) [1] [nm] | SMILES | Kd [2] [µM] |
| --- | --- | --- |
| 1.6 ± 0.6 | O=Cc1ccc(OCc2cc(OCc3cn(CCOCCO[C@H]4O[C@H](CO)[C@@H](O)[C@H](O)[C@@H]4O)nn3)cc(OCc3cn(CCOCCO[C@H]4O[C@H](CO)[C@@H](O)[C@H](O)[C@@H]4O)nn3)c2)cn1 [man-2] |  |
| 1.8 ± 0.1 | O=Cc1ccc(OCc2cc(OCc3cn(CCOCCO[C@H]4O[C@H](CO)[C@@H](O)[C@H](O)[C@@H]4O)nn3)c(OCc3cn(CCOCCO[C@H]4O[C@H](CO)[C@@H](O)[C@H](O)[C@@H]4O)nn3)c(OCc3cn(CCOCCO[C@H]4O[C@H](CO)[C@@H](O)[C@H](O)[C@@H]4O)nn3)c2)cn1 [man-3] |  |
| 2.4 ± 0.2 | O=Cc1ccc(OCc2cc(OCc3cc(OCc4cn(CCOCCO[C@H]5O[C@H](CO)[C@@H](O)[C@H](O)[C@@H]5O)nn4)c(OCc4cn(CCOCCO[C@H]5O[C@H](CO)[C@@H](O)[C@H](O)[C@@H]5O)nn4)c(OCc4cn(CCOCCO[C@H]5O[C@H](CO)[C@@H](O)[C@H](O)[C@@H]5O)nn4)c3)cc(OCc3cc(OCc4cn(CCOCCO[C@H]5O[C@H](CO)[C@@H](O)[C@H](O)[C@@H]5O)nn4)c(OCc4cn(CCOCCO[C@H]5O[C@H](CO)[C@@H](O)[C@H](O)[C@@H]5O)nn4)c(OCc4cn(CCOCCO[C@H]5O[C@H](CO)[C@@H](O)[C@H](O)[C@@H]5O)nn4)c3)c2)cn1 [man-6] |  |
|  | OC[C@H]1O[C@H](O)[C@@H](O)[C@@H](O)[C@@H]1O [α-D-mannose] | ~100 |
